Laboratory results taken from paper PMC12040169 (PLOS Biology, 2025).

Test: in vitro
Conditions: human, hela cells

SMILES | viability at 28.5 h, 10 µM [%]
Nc1nonc1OCC(COc1nonc1N)(COc1nonc1N)COc1nonc1N [CBK011044] | 85.6

Same assay, conditions: human, hela cells, % viability

SMILES | viability at 28.5 h, 10 µM [%]
O=C(CCc1ccc(F)cc1)N1CCC(c2cccc(Cc3ccccc3)n2)CC1 [CBK286511] | 114
CN1CCN(S(=O)(=O)c2ccccc2Br)CC1 [CBK062435] | 93.2
COCC(=O)Nc1nc(OC)cnc1/C=C\c1ccccc1 [CBK145360] | 113
O=C(CCCN1C(=O)c2cccc3cccc(c23)C1=O)Nc1cccnc1 [CBK262560] | 81.5
CC1=NN(c2ccc(S(N)(=O)=O)cc2)C(=O)/C1=C\c1ccc(-c2cccc(C(=O)O)c2)o1 [CBK263483] | 98
O=C(NC1CCCN(c2cc(-c3ccncc3)n[nH]2)C1)c1ccsc1 (centres unmarked) [CBK288619] | 104
CNC(=O)C1CCN(Cc2ccc(-c3nnn(CC(=O)NCc4ccc(C)cc4)n3)cc2)CC1 [CBK153195T] | 96.1
CCC(C)NC(=O)Cn1c(C2CCOCC2)cc2cccnc21 (centres unmarked) [CBK285390] | 104
CCn1c(C)nc2cc(NC(=O)c3ccc(CN(C)C)cc3)ccc21 [CBK281880] | 106
Clc1cc(N2CCCC2)ncn1 [CBK083597] | 99.2
CCCc1nn(CC(=O)OC)c(=O)c2cc3ccsc3n12 [CBK284144] | 98.7
OCc1ccccc1CN1CCOCC1 [CBK264388C] | 83.3
Cc1nc(C)c(C(=O)Nc2nn(C)c3cccc(N4CCOCC4)c23)o1 [CBK306534] | 83.8
O=C(N1CCCCCC1)N1CCN(S(=O)(=O)N2CCOCC2)CC1 [CBK268681] | 105
Cc1ccc(C)c(CC(=O)N(C)C2CCN(C3CCOCC3)CC2)c1 [CBK304964] | 87.4
CCN(CC)C(=O)CN1C2CCC1CC(O)(c1ccco1)C2 (centres unmarked) [CBK284094] | 106
COc1ccc(CNC(=O)CN2C(=O)[C@@H]3CCCN3C(=O)c3ccccc32)cc1 [CBK286322] | 89.7
COc1cc(C)c(Nc2cc(-c3ccc(CC(C)C)cc3)ncn2)cc1OC [CBK090785] | 91.2
CCOc1ccc(CNCc2ccc(C(=O)O)cc2)cc1OC [CBK269590C] | 87.3
CN(C)c1cccc(Oc2nc3c(c(=O)n(C)c(=O)n3C)n2C)c1 [CBK270109] | 97.8
FC(F)(F)c1cccc(Oc2nnnn2-c2ccccc2)c1 [CBK002798] | 92.6
Oc1cc(C(F)(F)F)nc(CCc2ccc(Cl)cc2)n1 [CBK003678] | 107

SMILES | viability at 28.5 h, 10 µM [%]
CC(C)(C)NS(=O)(=O)c1ccc(OCC(=O)NCc2ccncc2)cc1 [CBK266434] | 97.3
COc1ccc(/C=C(/C#N)C(=O)Nc2cccc(C)c2C)cc1C(=O)O [CBK262751] | 87.4
C#CCNC(=O)[C@@H]1Cc2cn(Cc3cc(C)on3)c3cccc(c23)[C@H](CC(C)C)N1 [CBK289426] | 90.4
COc1ccc(C(=O)C2=C(O)C(=O)N(Cc3cccnc3)C2c2ccc(OC)cc2OC)c(C)c1 (centres unmarked) [CBK264928] | 89.7
Cc1cc(C(=O)NCc2cccnc2N(C)C2CCCCC2)nn1C [CBK306577] | 69.6
O=C(NCC(=O)N1CCCC1c1cccs1)c1cccc(Br)c1 (centres unmarked) [CBK305655] | 99.2
O=C(O)CSc1nnc2n(-c3ccccc3)c3ccccc3n12 [CBK268557] | 106
CCN(CC)CCNC(=O)c1c(C)[nH]c(/C=C2\C(=O)Nc3ccc(F)cc32)c1C [CBK149343] | 50.7
Cc1cn(CC(=O)N2CCC3(CCN(C(=O)Cc4c[nH]c5ccccc45)C3)C2)c(=O)[nH]c1=O (centres unmarked) [CBK131445] | 101
COc1cc(CNc2nc(-c3c(C)cccc3C)cn3ccnc23)cc(OC)c1OC [CBK037415] | 91.1
CC[C@H](C)[C@H](NC(N)=O)C(=O)Nc1ccc(F)c([N+](=O)[O-])c1 [CBK297489] | 97.1
O=C1Cc2ccccc2C2(CCN(C(=O)Nc3c(F)cccc3F)CC2)N1 [CBK047296] | 89
COc1ccc(CC(=O)N2CCC(c3cccc(Cc4ccccc4C)n3)CC2)cc1 [CBK286232] | 93.5
O=[N+]([O-])c1ccc2c(c1)oc1ccc(S(=O)(=O)N3CCCC3)cc12 [CBK268512] | 107
COc1cccc2ncn(CCNS(C)(=O)=O)c(=O)c12 [CBK306583] | 81
COc1cc(/C=N/NC(=O)CCn2c3ccc(Cl)cc3c3cc(Cl)ccc32)ccc1O [CBK262351] | 112
CN(C)c1ccccc1-c1cc(NCCc2ccccn2)ncn1 [CBK037189] | 102
O=S(=O)(c1ccc(-n2cnc(Cl)c2Cl)cc1)N1CCCN(Cc2ccc3cccc(O)c3n2)CC1 [CBK063088] | 92
CCOC(=O)CCNC(=O)/C=C/c1ccc(C(C)C)cc1 [CBK149643] | 102
Cc1csc(C(Cc2ccsc2)NC(=O)Cn2ccnc2)n1 (centres unmarked) [CBK285113] | 106
Brc1cccc(-c2cn3ccnc3c(NC3CCOCC3)n2)c1 [CBK066291] | 101
CN1CCN(C(=O)CCC2CCCO2)C(c2ccccc2)C1 (centres unmarked) [CBK282015] | 101

SMILES | viability at 28.5 h, 10 µM [%]
Cc1ccc2[nH]c(=O)c(CN(Cc3ccccc3)C(=O)NC3CCCCC3)cc2c1 [CBK068704] | 84.5
COc1cc(/C=C2/SC(=S)N(CC(=O)O)C2=O)cc(Br)c1OCc1ccccn1 [CBK265598] | 115
Cc1ccc(Nc2nc(N)nc(CSc3nccn3C)n2)cc1 [CBK266468] | 113
CCN(CC)CCNc1ncnc(N)c1[N+](=O)[O-] [CBK267287] | 82.8
OCCN(CCO)Cc1c(Cl)cccc1Cl [CBK261887] | 93
Cc1cc(-c2ccccc2)sc1C(=O)/C=C(\O)C(=O)O [CBK263198] | 100
CC1(C)CC(CN)(c2ccccc2)CCO1 (centres unmarked) [CBK025559C] | 94.9
COc1ccc(Cn2c(C3CCNCC3)cc3cccnc32)cc1 [CBK285077] | 96.1
CCOC(=O)c1sc(-c2c(Cl)cc(C(F)(F)F)cc2Cl)nc1O [CBK078547] | 114
CCNC(=O)N1CCc2c([nH]c3ccc(OC)cc23)C12CCN(CCOc1ccccc1)C2 (centres unmarked) [CBK061690] | 93
CCC(c1cccc(OC)c1)N(C)C(=O)CC1CCN(c2nc(C)cc(C)n2)CC1 (centres unmarked) [CBK286255] | 99.7
CC(C)(C)NC(=O)CSc1nnc(Cc2cccc3ccccc23)n1-c1ccccc1 [CBK266039] | 118
O=C(CSc1nnc(-c2cccc(F)c2)o1)c1ccccc1 [CBK068764] | 105
CCOc1ccccc1Nc1c([N+](=O)[O-])nn(-c2ccc(OC)cc2)[n+]1[O-] [CBK268411] | 90.2
COc1ccc(OC(C)C(=O)Nc2ccc(C(=O)O)cc2)cc1 (centres unmarked) [CBK263622] | 101
CCc1nc2n(n1)CC(NCc1nc(C)ccc1O)CC2 (centres unmarked) [CBK306107] | 106
CC(C)(C)NC(=O)Cn1c(-c2cccs2)cc2cccnc21 [CBK282455] | 97.1
COc1ccc([C@H]2CN(Cc3ccccc3)[C@@H]3CCN(C(=O)c4ccccc4)C[C@H]23)cc1 [CBK285550] | 86.6
CCc1noc(C)c1C(=O)Nc1cccc(Cn2cc(Cl)cn2)c1 [CBK268127] | 97.6
COc1ccc(CN2CCCn3c4c(c5cc(C)ccc53)CCCC42)cc1OCc1ccccc1 (centres unmarked) [CBK262879] | 96.4
O=S(=O)(c1ccccc1)C1CCCCO1 (centres unmarked) [CBK020284] | 91.3
Cc1nc2c(c(=O)[nH]1)CCN(C(=O)c1oc3ccccc3c1C)C2 [CBK283752] | 111

SMILES | viability at 28.5 h, 10 µM [%]
Cn1c(=O)c2ncn(CC(=O)Nc3cccc(C(=O)O)c3)c2n(C)c1=O [CBK266838] | 98.4
NS(=O)(=O)c1cc(C(=O)O)ccc1Cl [CBK113676] | 108
COc1ccccc1CNC(=O)CCn1ccc2ccncc21 [CBK282229] | 91.9
C[C@]1(CO)[C@H]2Cc3sc(-c4ccccc4)nc3[C@@H](CC(=O)O)[C@]2(C)CC[C@H]1O [CBK289572] | 84.5
COc1cc(CN2CCN(c3cc(C)ccc3C)CC2)cc([N+](=O)[O-])c1O [CBK261868] | 95.5
NC1CCC(NC(=O)c2cnc(-c3ccc(Cl)cc3)c(-c3ccco3)c2)CC1 (centres unmarked) [CBK037563] | 105
NCC(=O)Nc1ccc(F)c(F)c1 [CBK046313] | 103
CNC(=O)c1cnc2sc3c(n2c1=O)CCCC3 [CBK288126] | 102
CCn1ncnc1CN(c1cccc(CO)c1)C1Cc2ccccc2C1 [CBK304173] | 111
Cc1ccc(OCc2cc(C)on2)c(Br)c1 [CBK002837] | 109
COCCNc1nc(-c2ccc(C(C)=O)s2)ccc1C(=O)N(C)CCN(C)C [CBK105914] | 116
COC(=O)c1sccc1OCc1nnc(-c2ccc(Cl)c(Cl)c2)o1 [CBK067742] | 96.5
CCCCNc1ncncc1-c1ccc(Br)cc1 [CBK005014C] | 88.6
COc1cc(CNc2nc(-c3cccc4ccccc34)cn3ccnc23)cc(OC)c1OC [CBK037397] | 112
O=c1ccc2ccc(-c3ccc(OC(F)(F)F)cc3)nc2[nH]1 [CBK073720] | 98.8
Cc1ccc(-c2cc(C(=O)O)c3cc4c(C(=O)O)cc(-c5ccc(C)o5)nc4cc3n2)o1 [CBK264342] | 87.4
O=C(O)CSc1nc2ccc(NC(=O)c3ccccc3Cl)cc2s1 [CBK299791] | 110
O=C(O)CCc1ccc(-c2ccc(F)cc2)n1NC(=O)c1ccco1 [CBK268853] | 90.7
Cc1cc(C(C)(C)C)ccc1OCCNCCN [CBK265097G] | 91.3
Cc1ccccc1-n1ncc2c1NC(=O)N1CCCN=C21 [CBK284409] | 78.7
O=C(Nc1cccnc1)c1cnc2cc(C(F)(F)F)ccc2c1O [CBK107474] | 77.8
Cc1nc(S(=O)(=O)N2CCC(C(=O)N3CCCCC3)CC2)cn1C [CBK305963] | 89.4
